Ten molecules from patent US20250215010A1, “DIAZABICYCLOOCTANE DERIVATIVES USEFUL AS MATRIX METALLOPROTEINASE INHIBITORS” (VASA THERAPEUTICS SPOLKA Z OGRANICZONA ODPOWIEDZIALNOSCIA, priority 2022, published 2025) can be followed below.

Holding throughout (assay type): biochemical
The target in test [1] is ADAM17 (TACE) (Homo sapiens, UniProt P78536). Nature of the test: TACE fluorometric inhibition assay (Enzo kit BML-AK310). The note with it: quenched fluorogenic peptide, ex/em 320/420 nm; read-out: TACE IC50 class. The method, boiled down: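 Kit-based TACE assay run per manufacturer's protocol, using quenched fluorogenic peptide Mca-PLAQAV-Dpa-RSSSR-NH2 whose cleavage raises Mca fluorescence. Signal read at ex/em 320/420 nm; IC50 (nM) derived from inhibition curves of normalized values.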
ADAM17 (TACE), sequence (P78536 215-477 limits assumed): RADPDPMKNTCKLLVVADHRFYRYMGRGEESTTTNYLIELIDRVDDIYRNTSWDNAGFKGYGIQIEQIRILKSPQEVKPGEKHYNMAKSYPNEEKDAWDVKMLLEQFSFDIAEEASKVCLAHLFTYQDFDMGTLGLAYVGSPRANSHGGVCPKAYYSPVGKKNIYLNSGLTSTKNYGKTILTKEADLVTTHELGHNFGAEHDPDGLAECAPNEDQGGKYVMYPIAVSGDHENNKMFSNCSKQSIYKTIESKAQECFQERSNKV

Test [2] deals with T1, ADAM10 (Homo sapiens, UniProt O14672).
T1 construct: purchased AnaSpec, Inc. AS-72226
T1 sequence (O14672 214-748): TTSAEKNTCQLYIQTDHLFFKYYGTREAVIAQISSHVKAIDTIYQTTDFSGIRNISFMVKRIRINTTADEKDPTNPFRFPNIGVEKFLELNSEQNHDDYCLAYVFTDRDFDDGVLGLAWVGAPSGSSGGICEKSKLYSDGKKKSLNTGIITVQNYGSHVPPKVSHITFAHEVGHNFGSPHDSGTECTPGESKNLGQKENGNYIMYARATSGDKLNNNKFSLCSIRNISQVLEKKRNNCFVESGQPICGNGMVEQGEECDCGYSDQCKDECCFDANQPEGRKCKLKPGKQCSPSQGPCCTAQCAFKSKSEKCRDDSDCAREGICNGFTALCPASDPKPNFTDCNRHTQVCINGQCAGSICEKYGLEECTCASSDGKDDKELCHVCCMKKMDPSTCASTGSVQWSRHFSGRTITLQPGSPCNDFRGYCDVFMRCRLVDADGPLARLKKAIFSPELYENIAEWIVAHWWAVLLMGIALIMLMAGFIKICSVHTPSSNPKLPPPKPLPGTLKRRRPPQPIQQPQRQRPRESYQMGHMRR
As to the kind of experiment: SensoLyte 520 ADAM10 fluorometric activity assay (AnaSpec AS-72226). On the procedure: The inhibitory activities of the compounds of the invention were assessed in 96-well microplate format using MMP1, MMP2, MMP9 and MMP13 colorimetric assay kits and TACE fluorometric assay kit from Enzo Life Sciences, Inc. The inhibitory effect of the compounds of the invention on ADAM10 activity were evaluated in 96-well microplate format using fluorometric assay from AnaSpec, Inc.
SensoLyte® 520 ADAM10 Activity Assay Kit (catalog #AS-72226) is a complete assay system designed to screen ADAM10 inhibitors using FRET-based peptide substrate containing the 5-FAM/QXL™ 520 fluorophore/quencher pair. The fluorescence of 5-FAM is quenched by QXL™ 520 and recovered upon cleavage of the peptide by active ADAM10.
The inhibitory activity of the compounds of the invention against ADAM10 was tested according to the manufacturer's assay protocol and the fluorescence was monitored at excitation/emission wavelengths=495 nm/520 nm using Tecan Infinite® 200 Pro F Nano^+ microplate reader.
The normalized values were analyzed using GraphPadPrism 9 for Windows (GraphPad Software, San Diego, CA, USA) software by plotting inhibition curves and determining the IC50 values (in nM).

In test [3] the target is T2, MMP13 (Homo sapiens, UniProt P45452).
T2 construct: purchased Enzo Life Sciences, Inc. BML-AK412
As to the kind of experiment: MMP-13 colorimetric inhibition assay (Enzo kit BML-AK412). To be noted: thiopeptide substrate, absorbance 415 nm; read-out: MMP 13 IC50 class. The method, boiled down:
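Thiopeptide chromogenic substrate (Ac-PLG-[2-mercapto-4-methylpentanoyl]-LG-OC2H5); MMP-13 hydrolysis of the thioester yields a thiol that reacts with DTNB, read at 415 nm. IC50 values (nM) derived from inhibition curves of normalized data.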

The target in test [4] is T3, MMP2 (Homo sapiens, UniProt P08253).
T3 sequence (P08253 110-660): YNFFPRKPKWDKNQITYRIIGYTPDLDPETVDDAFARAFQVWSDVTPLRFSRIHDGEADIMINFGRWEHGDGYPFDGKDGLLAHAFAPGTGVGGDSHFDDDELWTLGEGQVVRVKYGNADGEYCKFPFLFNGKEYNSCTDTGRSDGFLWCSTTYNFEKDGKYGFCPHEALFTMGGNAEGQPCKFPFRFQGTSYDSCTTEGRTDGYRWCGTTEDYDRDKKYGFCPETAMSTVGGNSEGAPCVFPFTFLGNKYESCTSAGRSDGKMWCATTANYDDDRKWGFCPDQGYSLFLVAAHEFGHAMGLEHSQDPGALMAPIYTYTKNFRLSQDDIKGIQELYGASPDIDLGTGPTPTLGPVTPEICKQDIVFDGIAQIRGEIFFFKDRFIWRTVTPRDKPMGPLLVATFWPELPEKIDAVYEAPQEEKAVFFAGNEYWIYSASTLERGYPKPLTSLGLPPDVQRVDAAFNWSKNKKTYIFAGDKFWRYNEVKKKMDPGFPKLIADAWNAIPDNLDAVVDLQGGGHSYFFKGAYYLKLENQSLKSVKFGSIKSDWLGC
Nature of the test: MMP-2 colorimetric inhibition assay (Enzo kit BML-AK408). The note with it: thiopeptide substrate, absorbance 415 nm; read-out: MMP 2 IC50 class. The method, boiled down:
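Cleavage of the thiopeptide Ac-PLG-[2-mercapto-4-methylpentanoyl]-LG-OC2H5 releases a sulfhydryl that reacts with DTNB, read at 415 nm per the kit protocol. IC50 values (nM) come from inhibition curves of normalized data.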

Test [5] deals with MMP9 (Homo sapiens, UniProt P14780). As to the kind of experiment: MMP-9 colorimetric inhibition assay (Enzo kit BML-AK410). The note with it: thiopeptide substrate, absorbance 415 nm; read-out: MMP 9 IC50 class. In a few lines:
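Colorimetric thioester-substrate assay: hydrolysis of Ac-PLG-[2-mercapto-4-methylpentanoyl]-LG-OC2H5 frees a thiol that reacts with DTNB, read at 415 nm. Run per kit protocol. IC50 (nM) taken from inhibition curves of normalized values.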

The target in test [6] is T4, MMP1 (Homo sapiens, UniProt P03956).
T4 sequence (P03956 100-269 limits assumed): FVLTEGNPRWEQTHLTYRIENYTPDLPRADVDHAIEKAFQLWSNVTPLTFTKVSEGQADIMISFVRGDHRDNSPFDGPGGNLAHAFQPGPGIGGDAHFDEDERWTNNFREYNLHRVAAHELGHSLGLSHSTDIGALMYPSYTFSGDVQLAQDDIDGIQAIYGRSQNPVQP
As to the kind of experiment: MMP-1 colorimetric inhibition assay (Enzo kit BML-AK404). To be noted: thiopeptide substrate, absorbance 415 nm; read-out: MMP 1 IC50 class. In a few lines: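 Colorimetric kit run per manufacturer protocol. MMP-1 cleaves a thiopeptide substrate (Ac-PLG-[2-mercapto-4-methylpentanoyl]-LG-OC2H5); released thiol reacts with DTNB, monitored at 415 nm. IC50 (nM) from inhibition curves of normalized values.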

Where [7] appears, read: FRET peptide substrate, ex/em 495/520 nm, read-out: ADAM 10 IC50 class.

pIC50: −log10 of the molar value. Like-named read-outs stand apart in the source and are kept apart here.

MMP9, sequence (P14780 94-707): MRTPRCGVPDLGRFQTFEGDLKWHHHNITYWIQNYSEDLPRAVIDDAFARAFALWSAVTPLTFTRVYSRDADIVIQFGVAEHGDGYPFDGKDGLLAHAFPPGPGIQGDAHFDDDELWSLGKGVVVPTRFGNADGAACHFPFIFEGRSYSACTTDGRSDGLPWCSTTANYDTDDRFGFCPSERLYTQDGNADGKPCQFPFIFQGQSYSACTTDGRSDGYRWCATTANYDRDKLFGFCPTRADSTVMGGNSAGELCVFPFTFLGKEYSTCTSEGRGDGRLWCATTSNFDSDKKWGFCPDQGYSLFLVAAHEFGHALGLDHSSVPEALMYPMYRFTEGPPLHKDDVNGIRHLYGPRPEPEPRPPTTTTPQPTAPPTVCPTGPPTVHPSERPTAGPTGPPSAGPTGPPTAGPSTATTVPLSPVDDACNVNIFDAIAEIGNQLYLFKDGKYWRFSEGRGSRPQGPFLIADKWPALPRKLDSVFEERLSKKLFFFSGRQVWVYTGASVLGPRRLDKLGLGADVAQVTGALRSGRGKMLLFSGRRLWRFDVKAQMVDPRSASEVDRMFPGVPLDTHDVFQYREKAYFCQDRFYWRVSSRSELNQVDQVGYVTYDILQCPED

One may read the pIC50 as the IC50 on a negative log10 scale, so that one unit is a factor of ten. As to `COCCOC(=O)N1[C@@H]2CC[C@H]1[C@H](C(=O)NO)N(S(=O)(=O)c1ccc(Oc3ccc(F)cc3)nc1)C2` [Example 1, (1S,2R,5R)-2-methoxyethyl 3-((6-(4-fluorophenoxy)pyridin-3-yl)sulfonyl)-2-(hydroxycarbamoyl)-3,8-diazabicyclo[3.2.1]octane-8-carboxylate], the pIC50 was 5.00 to 6.00 in test [1]; 5.00 to 6.00 in test [2] (setting [7]); greater than 7.30 in test [3]; greater than 7.30 in test [4]; greater than 7.30 in test [5]; 6.00 to 7.30 in test [6].

Regarding `COCCOC(=O)N1[C@@H]2CC[C@H]1[C@H](C(=O)NO)N(S(=O)(=O)c1ccc(Oc3ccc(F)cc3)c(F)c1)C2` [Example 5, 2-methoxyethyl (1S,2R,5R)-3-((3-fluoro-4-(4-fluoro-phenoxy)phenyl)-sulfonyl)-2-(hydroxycarbamoyl)-3,8-diazabicyclo[3.2.1]-octane-8-carboxylate], the pIC50 in test [1] is 6.00 to 7.30; in test [2] it was 6.00 to 7.30; in test [3], greater than 7.30; in test [4], greater than 7.30; in test [5], greater than 7.30; in test [6], 6.00 to 7.30.

For the molecule `COCCOC(=O)N1[C@@H]2CC[C@H]1[C@H](C(=O)NO)N(S(=O)(=O)c1ccc(Oc3ccc(F)cn3)cc1)C2` [Example 7, 2-methoxyethyl (1S,2R,5R)-3-((4-((5-fluoropyridin-2-yl)oxy)phenyl)-sulfonyl)-2-(hydroxycarbamoyl)-3,8-diazabicyclo-[3.2.1]octane-8-carboxylate], the pIC50 in test [1] is 6.00 to 7.30; in test [2] (setting [7]), 6.00 to 7.30; in test [3], greater than 7.30; in test [4], greater than 7.30; in test [5] it was greater than 7.30; in test [6], 6.00 to 7.30.

Take `COCCOC(=O)N1[C@@H]2CC[C@H]1[C@H](C(=O)NO)N(S(=O)(=O)c1ccc(Oc3ccc(Cl)cc3)nc1)C2` [Example 8, 2-methoxyethyl (1S,2R,5R)-3-((6-(4-chlorophenoxy)pyridin-3-yl)sulfonyl)-2-(hydroxycarbamoyl)-3,8-diazabicyclo-[3.2.1]octane-8-carboxylate]: the pIC50 in test [1] is 6.00 to 7.30; in test [2] (setting [7]), 5.00 to 6.00; in test [3], greater than 7.30; in test [4], greater than 7.30; in test [5], greater than 7.30; in test [6], 6.00 to 7.30.

In the case of `COCCOC(=O)N1[C@@H]2CC[C@H]1[C@H](C(=O)NO)N(S(=O)(=O)c1ccc(Oc3ccc(Cl)c(F)c3)nc1)C2` [Example 9, 2-methoxyethyl (1S,2R,5R)-3-((6-(4-chloro-3-fluoro-phenoxy)pyridin-3-yl)sulfonyl)-2-(hydroxycarbamoyl)-3,8-diaza-bicyclo[3.2.1]octane-8-carboxylate], the pIC50 in test [1] was 6.00 to 7.30; in test [2] (setting [7]), 5.00 to 6.00; in test [3], greater than 7.30; in test [4], greater than 7.30; in test [5], greater than 7.30; in test [6], 6.00 to 7.30.

`COCCOC(=O)N1[C@@H]2CC[C@H]1[C@H](C(=O)NO)N(S(=O)(=O)c1ccc(OC3CCCCC3)nc1)C2` [Example 10, 2-methoxyethyl (1S,2R,5R)-3-((6-(cyclohexyloxy)pyridin-3-yl)sulfonyl)-2-(hydroxycarbamoyl)-3,8-diazabicyclo[3.2.1]octane-8-carboxylate]: the pIC50 in test [1] is 5.00 to 6.00; in test [2] (setting [7]), less than 5.00; in test [3], greater than 7.30; in test [4] it was greater than 7.30; in test [5], greater than 7.30; in test [6] it was 6.00 to 7.30.

Consider `COCCOC(=O)N1[C@@H]2CC[C@H]1[C@H](C(=O)NO)N(S(=O)(=O)c1ccc(Oc3ccc(OC)cc3)nc1)C2` [Example 18, 2-methoxyethyl (1S,2R,5R)-2-(hydroxycarbamoyl)-3-((6-(4-methoxy-phenoxy)pyridin-3-yl)sulfonyl)-3,8-diazabicyclo-[3.2.1]octane-8-carboxylate], for which the pIC50 in test [1] was 5.00 to 6.00; in test [2] (setting [7]), 5.00 to 6.00; in test [3], greater than 7.30; in test [4], greater than 7.30; in test [5], greater than 7.30; in test [6] it was 5.00 to 6.00.

As for `COCCOC(=O)N1[C@@H]2CC[C@H]1[C@H](C(=O)NO)N(S(=O)(=O)c1ccc(Oc3ccc(OC(F)(F)F)cc3)nc1)C2` [Example 19, 2-methoxyethyl (1S,2R,5R)-2-(hydroxycarbamoyl)-3-((6-(4-(trifluoro-methoxy)phenoxy)-pyridin-3-yl)-sulfonyl)-3,8-diaza-bicyclo[3.2.1]octane-8-carboxylate], the pIC50 was 5.00 to 6.00 in test [1]; less than 5.00 in test [2] (setting [7]); greater than 7.30 in test [3]; greater than 7.30 in test [4]; greater than 7.30 in test [5]; 5.00 to 6.00 in test [6].

As to `COCCOC(=O)N1[C@@H]2CC[C@H]1[C@H](C(=O)NO)N(S(=O)(=O)c1ccc(Oc3ccc(Cl)cc3F)nc1)C2` [Example 20, 2-methoxyethyl (1S,2R,5R)-3-((6-(4-chloro-2-fluoro-phenoxy)pyridin-3-yl)sulfonyl)-2-(hydroxycarbamoyl)-3,8-diazabicyclo[3.2.1]-octane-8-carboxylate], the pIC50 in test [1] is 6.00 to 7.30; in test [2] (setting [7]) it was 5.00 to 6.00; in test [3] it was greater than 7.30; in test [4], greater than 7.30; in test [5] it was greater than 7.30; in test [6] it was 6.00 to 7.30.

For the molecule `COCCOC(=O)N1[C@@H]2CC[C@H]1[C@H](C(=O)NO)N(S(=O)(=O)c1ccc(Oc3ccc(F)cc3F)nc1)C2` [Example 21, 2-methoxyethyl (1S,2R,5R)-3-((6-(2,4-difluoro-phenoxy)pyridin-3-yl)sulfonyl)-2-(hydroxycarbamoyl)-3,8-diazabicyclo-[3.2.1]octane-8-carboxylate], the pIC50 in test [1] is 6.00 to 7.30; in test [2] (setting [7]), less than 5.00; in test [3], greater than 7.30; in test [4], greater than 7.30; in test [5], greater than 7.30; in test [6] it was 6.00 to 7.30.
